US20110166109A1, “Synergistic Active Compound Combinations Comprising Phenyltriazoles” (Bayer CropScience AG, priority 2009, published 2011)
Read-outs that look alike come from different tables or passages of the source.

Legend:
Type in all cases: in vivo
Phaedon cochleariae = Phaedon cochleariae larvae test (treated cabbage leaves); conditions: applied individually; for pest or weed control at 500 g/ha / pest or weed control at 100 g/ha / pest or weed control at 200 g/ha: Phaedon cochleariae, 144 h, after 6 d, read-out: Kill in % after 6d
Tetranychus urticae = experiment: Tetranychus test (OP-resistant/spray treatment), bean leaf discs
Method: (§1) To produce a suitable preparation of active compound, 1 part by weight of active compound is mixed with the stated amounts of solvent and emulsifier, and the concentrate is diluted with emulsifier-containing water to the desired concentration.
Discs of bean leaves (Phaseolus vulgaris) which are infested by all stages of the greenhouse red spidermite (Tetranychus urticae) are sprayed with an active compound preparation of the desired concentration.
After the desired period of time, the effect in % is determined. 100% means that all spider mites have been killed; 0% means that none of the spider mites have been killed.

Myzus persicae = Myzus persicae test (spray treatment of infested cabbage leaves); conditions: applied individually
Method: as §1
Cabbage leaves (Brassica oleracea) which are heavily infested by the green peach aphid (Myzus persicae) are treated by spraying with the active compound preparation of the desired concentration.
After the desired period of time, the kill in % is determined. 100% means that all of the aphids have been destroyed; 0% means that none of the aphids have been destroyed. The kill rates determined are entered into Colby's formula.

Spodoptera frugiperda = Spodoptera frugiperda larvae test (sprayed cabbage leaves); conditions: applied individually
Method: as §1
Cabbage leaves (Brassica okracea) are treated by being sprayed with the preparation of active compound of the desired concentration and are populated with larvae of the armyworm (Spodoptera frugiperda) while the leaves are still moist.
After the desired period of time, the kill in % is determined. 100% means that all caterpillars have been killed; 0% means that none of the caterpillars have been killed. The kill rates determined are entered into Colby's formula.

[1] = Tetranychus urticae, foliar, 144 h, 500 g/ha, after 6 d, applied individually, read-out: Kill in % after 6d
[2] = Tetranychus urticae, foliar, 144 h, read-out: Kill in % after 6d

For `Cc1nn(C)c(F)c1C(=O)Nc1ccccc1C(C)CC(C)C` (centres unmarked) [(6-18), N-[2-(1,3-dimethylbutyl)phenyl]-5-fluoro-1,3-dimethyl-1H-pyrazole-4-carboxamide], the pest or weed control at 500 g/ha (Phaedon cochleariae; 500 g/ha) was 0%, the “Kill in % after 1d” value (Tetranychus urticae; 500 g/ha, applied individually) was 0% and the pest or weed control at 500 g/ha (Tetranychus urticae; [1]) was 0%.

`Cc1cc(C)c([S+]([O-])CC(F)(F)F)cc1-n1cnc(C(F)(F)F)n1` (centres unmarked) [(I-1)] was tested, and the “Kill in % after 6d” value (Myzus persicae; 20 g/ha) was 0%, the pest or weed control at 100 g/ha (Phaedon cochleariae) was 0% and the “Kill in % after 1d” value (Tetranychus urticae; 0.16 g/ha, applied individually) was 0%. The pest or weed control at 0.16 g/ha (Tetranychus urticae; Tetranychus urticae, foliar, 144 h, 0.16 g/ha, after 6 d, applied individually, read-out: Kill in % after 6d) was 0% and the pest or weed control at 0.8 g/ha (Tetranychus urticae; Tetranychus urticae, foliar, 144 h, 0.8 g/ha, after 6 d, applied individually, read-out: Kill in % after 6d) was 60%.

In the case of `CO/C=C(/C(=O)OC)c1ccccc1Oc1cc(Oc2ccccc2C#N)ncn1` [azoxystrobin], the pest or weed control at 500 g/ha (Phaedon cochleariae; 500 g/ha) is reported as 17%.

`CC(C)(C)C(O)C(Oc1ccc(-c2ccccc2)cc1)n1cncn1` (centres unmarked) [bitertanol] showed a pest or weed control at 500 g/ha (Phaedon cochleariae; 500 g/ha) of 0%.

In the case of `Cn1cc(C(=O)Nc2ccc(F)cc2-c2ccc(Cl)c(Cl)c2)c(C(F)F)n1` [bixafen, N-(3′,4′-dichloro-5-fluoro[1,1′-biphenyl]-2-yl)-3-(difluoromethyl)-1-methyl-1H-pyrazole-4-carboxamide], the pest or weed control at 500 g/ha (Phaedon cochleariae; 500 g/ha) is reported as 0% and the “Kill in % after 1d” value (Tetranychus urticae; 200 g/ha, applied individually) is reported as 0%.

`COC(=O)Nc1nc2ccccc2[nH]1` [carbendazim] was tested, and the “Kill in % after 6d” value (Myzus persicae; 500 g/ha) was 20%.

With `CCC1(C(=O)NC(C)c2ccc(Cl)cc2)C(C)C1(Cl)Cl` (centres unmarked) [carpropamid] the pest or weed control at 500 g/ha (Phaedon cochleariae; 500 g/ha) was 0% and the “Kill in % after 6d” value (Spodoptera frugiperda; 500 g/ha) was 0%.

`Cc1cc(F)c(-n2nc(C(F)(F)F)nc2N)cc1[S+]([O-])CC(F)(F)F` (centres unmarked) [compound (I-4)] was tested, and the “Kill in % after 1d” value (Myzus persicae; 100 g/ha) was 0%, the pest or weed control at 100 g/ha (Phaedon cochleariae) was 0% and the pest or weed control at 4 g/ha (Tetranychus urticae; Tetranychus urticae, foliar, 144 h, 4 g/ha, after 6 d, applied individually, read-out: Kill in % after 6d) was 70%. The pest or weed control at 20 g/ha (Tetranychus urticae; Tetranychus urticae, foliar, 144 h, 20 g/ha, after 6 d, applied individually, read-out: Kill in % after 6d) was 80% and the “Kill in % after 6d” value (Spodoptera frugiperda; 100 g/ha) was 0%.

In the case of `CSC1=N[C@@](C)(c2ccccc2)C(=O)N1Nc1ccccc1` [fenamidone], the pest or weed control at 500 g/ha (Phaedon cochleariae; 500 g/ha) is reported as 0%, the pest or weed control at 500 g/ha (Tetranychus urticae; [2]) is reported as 0% and the “Kill in % after 6d” value (Spodoptera frugiperda; 500 g/ha) is reported as 0%.

For `N#Cc1c[nH]cc1-c1cccc2c1OC(F)(F)O2` [fludioxonil], the pest or weed control at 200 g/ha (Phaedon cochleariae) was 33% and the pest or weed control at 200 g/ha (Tetranychus urticae; [2]) was 0%.

For `O=C(NCc1ncc(C(F)(F)F)cc1Cl)c1c(Cl)cccc1Cl` [fluopicolide, fluopicolid], the “Kill in % after 6d” value (Phaedon cochleariae; 500 g/ha) was 0%, the pest or weed control at 500 g/ha (Phaedon cochleariae; 500 g/ha) was 0% and the pest or weed control at 500 g/ha (Tetranychus urticae; [1]) was 0%.

With `O=C(NCCc1ncc(C(F)(F)F)cc1Cl)c1ccccc1C(F)(F)F` [fluopyram, N-[2-[3-chloro-5-(trifluoromethyl)-2-pyridinyl]ethyl]-2-(trifluoromethyl)benzamide] the pest or weed control at 500 g/ha (Phaedon cochleariae; 500 g/ha) was 0%, the pest or weed control at 500 g/ha (Tetranychus urticae; [2]) was 0% and the “Kill in % after 6d” value (Spodoptera frugiperda; 500 g/ha) was 0%.

`CO/N=C(/C1=NOCCO1)c1ccccc1Oc1ncnc(Oc2ccccc2Cl)c1F` [fluoxastrobin] showed a pest or weed control at 500 g/ha (Phaedon cochleariae; 500 g/ha) of 33% and a pest or weed control at 500 g/ha (Tetranychus urticae; [2]) of 0%.

`O=c1c2cc(F)ccc2nc(-n2cncn2)n1-c1ccc(Cl)cc1Cl` [fluquincoazole, fluquinconazole] showed a pest or weed control at 500 g/ha (Phaedon cochleariae; 500 g/ha) of 17% and a pest or weed control at 500 g/ha (Tetranychus urticae; [2]) of 0%.

For `CC(C)C1CCC(Cc2ccc(Cl)cc2)C1(O)Cn1cncn1` (centres unmarked) [ipconazole], the pest or weed control at 500 g/ha (Phaedon cochleariae; 500 g/ha) was 0%.

`N#Cc1ccccc1NC(=O)c1snc(Cl)c1Cl` [isotianil] showed a pest or weed control at 500 g/ha (Phaedon cochleariae; 500 g/ha) of 0%.

In the case of `COCC(=O)N(c1c(C)cccc1C)C(C)C(=O)OC` (centres unmarked) [metalaxyl], the “Kill in % after 1d” value (Tetranychus urticae; 500 g/ha, applied individually) is reported as 0% and the pest or weed control at 500 g/ha (Tetranychus urticae; [2]) is reported as 0%.

`CNC(=O)/C(=N/OC)c1ccccc1Oc1ccccc1` [metominostrobin] was tested, and the pest or weed control at 500 g/ha (Tetranychus urticae; [2]) was 0%.

`O=C(Nc1ccccc1)N(Cc1ccc(Cl)cc1)C1CCCC1` [pencycuron] showed a pest or weed control at 500 g/ha (Phaedon cochleariae; 500 g/ha) of 0%.

In the case of `CCCOC(=O)NCCCN(C)C` [propamocarb], the pest or weed control at 200 g/ha (Phaedon cochleariae) is reported as 17%, the “Kill in % after 1d” value (Tetranychus urticae; 500 g/ha, applied individually) is reported as 0% and the pest or weed control at 500 g/ha (Tetranychus urticae; [1]) is reported as 0%.

For `OC(Cc1ccccc1Cl)(Cn1ncnc1S)C1(Cl)CC1` (centres unmarked) [prothioconazole], the pest or weed control at 500 g/ha (Phaedon cochleariae; 500 g/ha) was 0%, the pest or weed control at 200 g/ha (Tetranychus urticae; [2]) was 0% and the “Kill in % after 6d” value (Spodoptera frugiperda; 500 g/ha) was 0%.

`CCCN(CC)CC1COC2(CCC(C(C)(C)C)CC2)O1` (centres unmarked) [spiroxamine] showed a pest or weed control at 200 g/ha (Tetranychus urticae; [2]) of 0%.

For `CC(C)(C)C(O)(CCc1ccc(Cl)cc1)Cn1cncn1` (centres unmarked) [tebuconazole], the pest or weed control at 500 g/ha (Phaedon cochleariae; 500 g/ha) was 0%, the pest or weed control at 200 g/ha (Tetranychus urticae; [2]) was 0% and the “Kill in % after 6d” value (Spodoptera frugiperda; 500 g/ha) was 0%.

`Cc1ccc(N(SC(F)(Cl)Cl)S(=O)(=O)N(C)C)cc1` [tolyfluanid, tolylfluanid] showed a pest or weed control at 500 g/ha (Phaedon cochleariae; 500 g/ha) of 0%.

`CC(C)(C)C(O)C(Oc1ccc(Cl)cc1)n1cncn1` (centres unmarked) [triadimenol] was tested, and the pest or weed control at 500 g/ha (Phaedon cochleariae; 500 g/ha) was 0%, the pest or weed control at 200 g/ha (Tetranychus urticae; [2]) was 0% and the “Kill in % after 6d” value (Spodoptera frugiperda; 500 g/ha) was 0%.

For `CO/N=C(/C(=O)OC)c1ccccc1CO/N=C(\C)c1cccc(C(F)(F)F)c1` [trifloxystrobin], the “Kill in % after 1d” value (Myzus persicae; 500 g/ha) was 70%, the pest or weed control at 200 g/ha (Phaedon cochleariae) was 17% and the pest or weed control at 500 g/ha (Phaedon cochleariae; 500 g/ha) was 0%. The pest or weed control at 500 g/ha (Tetranychus urticae; [2]) was 0%.
